Source: patent US20110105436A1, “HETEROARYL COMPOUNDS, COMPOSITIONS, AND METHODS OF USE IN CANCER TREATMENT” (AUCKLAND UNISERVICES LIMITED, priority 2008, published 2011)

Legend:
RCC4 cells = experiment: XTT assay in VHL-deficient RCC4 cells; type: cell-based; conditions: Homo sapiens, 96 h, XTT assay, VHL-deficient RCC4 cells, four days
Procedure: (§1) Cell Viability and XTT assays. For cell viability, 100,000 cells were plated in a 12-well plate. The following day, 1.25 μM STF-62247 was added in the presence or absence of 1 mM 3-MA for 24 hours at 37° C. Cells were trypsinized and counted by trypan blue exclusion. For XTT assays, 5000 RCC4 with and without VHL cells or 2,500 SN12C with and without VHL shRNA cells were plated in 96-well plates. The following day, vehicle (DMSO), STF-62247 or each of 19 analogs were added to media by serial dilution. Four days later, the media was aspirated and XTT solution containing 0.3 mg/ml of XTT (Sigma Chemical Co) in Phenol Red-free media, 20% FCS and 2.65 mg/ml N-methyl dibenzopyrazine methyl sulfate (PMS) was added to the cells and incubated at 37° C. for 1-2 hours. Metabolism of XTT was quantified by measuring the absorbance at 450 nm on a plate reader.

RCC4/VHL cells = experiment: XTT assay, RCC4/VHL versus RCC4 cells (selectivity ratio); type: cell-based; conditions: Table 1; selectivity ratio, IC50 in RCC4/VHL cells/IC50 in RCC4 cells
Procedure: as §1
A. RCC4 and RCC4/VHL were treated with 1.25 μM of each 19 analogs for 20 hours and the presence of vacuoles was examined under light microscopy. B. Western blot for LC3 after treatment with each compound. Tubulin was used as loading control. Ratio is the relative from the IC50 in RCC4/VHL cells/IC50 in RCC4 cells. C. Acidic vesicle organelles (AVO) measured by FACS analysis in cells treated with 1.25 μM of STF-62247 or with compounds 21, 15, 25, 47, and 53 and stained with acridine orange.

SMILES | IC50 (RCC4 cells; Table 1) [µM] | melting point [°C] | IC50 (RCC4 cells; Table 2) [µM] | Ratio (RCC4/VHL cells)
Cc1cccc(Nc2nc(-c3ccncc3)c(C(=O)NCCCN3CCOCC3)s2)c1 [Compound 94, 2-[(3-Methylphenyl)amino]-N-[3-(4-morpholinyl)propyl]-4-(4-pyridinyl)-1,3-thiazole-5-carboxamide] | > 40 | 190 to 192 | – | –
Cc1ccccc1Nc1nc(-c2ccncc2)cs1 [Compound 111, N-(2-Methylphenyl)-4-(4-pyridinyl)-1,3-thiazol-2-amine] | > 40 | 158 to 160 | – | –
CC(C)(C)c1cccc(Nc2nc(-c3ccncc3)cs2)c1 [Compound 11, N-(3-tert-Butylphenyl)-4-(4-pyridinyl)-1,3-thiazol-2-amine] | > 40 | 208 to 210 | – | –
Cc1cccc(C)c1Nc1nc(-c2ccncc2)cs1 [Compound 137, N-(2,6-Dimethylphenyl)-4-(4-pyridinyl)-1,3-thiazol-2-amine] | > 40 | 208 to 210 | – | –
Cc1cccc(CNc2nc(-c3ccncc3)cs2)c1 [Compound 103, N-(3-Methylbenzyl)-4-(4-pyridinyl)-1,3-thiazol-2-amine] | > 40 | 192 to 194 | – | –
Cc1ccc(C(=O)Nc2nc(-c3ccncc3)cs2)cc1 [Compound 101, 4-Methyl-N-[4-(4-pyridinyl)-1,3-thiazol-2-yl]benzamide] | > 40 | 238 to 241 | – | –
COc1cc(Nc2nc(-c3ccncc3)cs2)cc(OC)c1OC [Compound 63, 4-(4-Pyridinyl)-N-(3,4,5-trimethoxyphenyl)-1,3-thiazol-2-amine] | > 40 | 207 to 209 | – | –
O=[N+]([O-])c1ccc(Nc2nc(-c3ccncc3)cs2)cc1 [Compound 35, N-(4-Nitrophenyl)-4-(4-pyridinyl)-1,3-thiazol-2-amine] | > 40 | > 290 | – | –
Cc1cccc(Nc2nc(-c3ccnc(C)c3)cs2)c1 [Compound 145, N-(3-Methylphenyl)-4-(2-methyl-4-pyridinyl)-1,3-thiazol-2-amine] | – | 198 to 200 | > 40 | –
O=C(Nc1nc(-c2ccncc2)cs1)c1ccccc1 [Compound 99, N-[4-(4-Pyridinyl)-1,3-thiazol-2-yl]benzamide] | > 40 | 241 to 243 | – | –
c1cc(-c2csc(Nc3ccc4c(c3)OCO4)n2)ccn1 [Compound 59, N-(1,3-Benzodioxol-5-yl)-4-(4-pyridinyl)-1,3-thiazol-2-amine] | > 40 | 201 to 203 | – | –
Cc1cccc(Nc2nc(-c3ccncc3)c(C(=O)NCCN(C)C)s2)c1 [Compound 93, N-[2-(Dimethylamino)ethyl]-2-[(3-methylphenyl)amino]-4-(4-pyridinyl)-1,3-thiazole-5-carboxamide] | > 40 | 189 to 191 | – | –
COC(=O)CCc1sc(Nc2cccc(C)c2)nc1-c1ccncc1 [Compound 79, Methyl 3-[2-[(3-Methylphenyl)amino]-4-(4-pyridinyl)-1,3-thiazol-5-yl]propanoate] | > 40 | 121 to 123 | – | –
CCOC(=O)c1sc(Nc2ccc3c(c2)CCC3)nc1-c1ccncc1 [Compound 89, Ethyl 2-(2,3-Dihydro-1H-inden-5-ylamino)-4-(4-pyridinyl)-1,3-thiazole-5-carboxylate] | > 40 | 203 to 205 | – | –
Fc1cccc(F)c1Nc1nc(-c2ccncc2)cs1 [Compound 139, N-(2,6-Difluorophenyl)-4-(4-pyridinyl)-1,3-thiazol-2-amine] | > 40 | 209 to 211 | – | –
COc1ccc(Nc2nc(-c3ccncc3)cs2)cc1O [Compound 51, 2-Methoxy-5-{[4-(4-pyridinyl)-1,3-thiazol-2-yl]amino}phenol] | – | 230 to 232 | – | –
Cc1cccc(Nc2nc(-c3ccncc3)c(C=O)s2)c1 [Compound 77, 2-[(3-Methylphenyl)amino]-4-(4-pyridinyl)-1,3-thiazole-5-carbaldehyde] | 15 | 220 to 223 | – | –
Cc1cccc(N(CCO)c2nc(-c3ccncc3)cs2)c1 [Compound 97, 2-{3-Methyl[4-(4-pyridinyl)-1,3-thiazol-2-yl]anilino}ethanol] | > 40 | 149 to 151 | – | –
Cc1cccc(Nc2nc(-c3ccncc3)c[nH]2)c1 [Compound 196, N-(3-Methylphenyl)-4-(4-pyridinyl)-1H-imidazol-2-amine] | – | 170 to 171 | – | –

SMILES | IC50 (RCC4 cells; Table 1) [µM] | melting point [°C] | IC50 (RCC4 cells; Table 2) [µM] | Ratio (RCC4/VHL cells)
CCOC(=O)c1sc(Nc2cccc(C)c2)nc1-c1ccncc1 [Compound 88, Ethyl 2-[(3-Methylphenyl)amino]-4-(4-pyridinyl)-1,3-thiazole-5-carboxylate] | > 40 | 233 to 235 | – | –
Cc1cccc(Nc2nc(-c3ccncc3)co2)c1 [Compound 105, N-(3-Methylphenyl)-4-(4-pyridinyl)-1,3-oxazol-2-amine] | > 40 | 201 to 204 | – | –
Cc1cccc(Nc2nc(-c3ccnc(N4CCOCC4)c3)cs2)c1 [Compound 197, N-(3-Methylphenyl)-4-[2-(4-morpholinyl)-4-pyridinyl]-1,3-thiazol-2-amine] | – | 190 to 191 | – | –
Cc1cccc(Nc2nc(-c3cc[n+]([O-])cc3)cs2)c1 [Compound 188, N-(3-Methylphenyl)-4-(1-oxido-4-pyridinyl)-1,3-thiazol-2-amine] | – | 162 to 164 | > 40 | –
Fc1cccc(Nc2nc(-c3ccncc3)cs2)c1 [Compound 121, N-(3-Fluorophenyl)-4-(4-pyridinyl)-1,3-thiazol-2-amine] | > 40 | 229 to 230 | – | –
Cc1cccc(Nc2nc(-c3ccncc3N)cs2)c1 [Compound 182] | – | 159 to 161 | > 40 | –
Cc1cccc(C(=O)Nc2nc(-c3ccncc3)cs2)c1 [Compound 100, 3-Methyl-N-[4-(4-pyridinyl)-1,3-thiazol-2-yl]benzamide] | > 40 | 201 to 202 | – | –
N#Cc1cccc(Nc2nc(-c3ccncc3)cs2)c1 [Compound 127, 3-{[4-(4-Pyridinyl)-1,3-thiazol-2-yl]amino}benzonitrile] | > 40 | 252 to 253 | – | –
O=[N+]([O-])c1ccccc1Nc1nc(-c2ccncc2)cs1 [Compound 119, N-[2-Nitrophenyl]-4-(4-pyridinyl)-1,3-thiazol-2-amine] | > 40 | 127 to 130 | – | –
FC(F)(F)c1cccc(Nc2nc(-c3ccncc3)cs2)c1 [Compound 19, 4-(4-Pyridinyl)-N-[3-(trifluoromethyl)phenyl]-1,3-thiazol-2-amine] | > 40 | 239 to 241 | – | –
COc1cc(Nc2nc(-c3ccncc3)cs2)cc(OC)c1 [Compound 57, N-(3,5-Dimethoxyphenyl)-4-(4-pyridinyl)-1,3-thiazol-2-amine] | > 40 | 229 to 231 | – | –
COc1ccc(C(=O)Nc2nc(-c3ccncc3)cs2)cc1 [Compound 102, 4-Methoxy-N-[4-(4-pyridinyl)-1,3-thiazol-2-yl]benzamide] | > 40 | 271 to 274 | – | –
FC(F)(F)c1ccccc1Nc1nc(-c2ccncc2)cs1 [Compound 117, 4-(4-Pyridinyl)-N-[2-(trifluoromethyl)phenyl]-1,3-thiazol-2-amine] | > 40 | 170 to 172 | – | –
Cc1cccc(Nc2nc(-c3ccnc(N4CCN(C)CC4)c3)cs2)c1 [Compound 198, N-(3-Methylphenyl)-4-[2-(4-methyl-1-piperazinyl)-4-pyridinyl]-1,3-thiazol-2-amine] | – | 141 to 143 | – | –
Cc1cccc(Nc2nc(-c3ccnc(N(C)C)c3)cs2)c1 [Compound 199, N,N-Dimethyl-4-{2-[(3-methylphenyl)amino]-1,3-thiazol-4-yl}-2-pyridinamine] | – | 148 to 150 | – | –
N#Cc1ccc(Nc2nc(-c3ccncc3)cs2)cc1 [Compound 135, 4-{[4-(4-Pyridinyl)-1,3-thiazol-2-yl]amino}benzonitrile] | > 40 | > 300 | – | –
O=[N+]([O-])c1cccc(Nc2nc(-c3ccncc3)cs2)c1 [Compound 129, N-(3-Nitrophenyl)-4-(4-pyridinyl)-1,3-thiazol-2-amine] | > 40 | 244 to 247 | – | –
c1cc(-c2csc(Nc3ccc4c(c3)CCC4)n2)ccn1 [Compound 47, N-(2,3-Dihydro-1H-inden-5-yl)-4-(4-pyridinyl)-1,3-thiazol-2-amine] | 2 | – | – | 10
